Results as given in PubChem BioAssay (NCI).
Where “and” joins values, the source holds several entries; their conditions need not be identical. Identical values can stand only once.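 96-well plates; 48 h exposure; 5 concentrations. Endpoints by linear interpolation between flanking doses. Not reached: highest tested concentration assigned. The concentration for 50% growth inhibition is given as GI50. Definition used: TGI = concentration required for complete inhibition of growth.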

Key:
Assay in all cases: NCI tumour cell line growth inhibition, 48 h
SN12C renal = system: SN12C renal
OVCAR-4 ovarian = system: OVCAR-4 ovarian
RXF-631 renal = system: RXF-631 renal
SK-MEL-5 melanoma = system: SK-MEL-5 melanoma
DMS 114 small cell lung = system: DMS 114 small cell lung
MDA-MB-435 = system: MDA-MB-435
MOLT-4 leukemia = system: MOLT-4 leukemia
M14 melanoma = system: M14 melanoma
HCT-116 colon = system: HCT-116 colon
SK-MEL-2 melanoma = system: SK-MEL-2 melanoma
OVCAR-5 ovarian = system: OVCAR-5 ovarian
A549 NSCLC = system: A549 NSCLC
NCI/ADR-RES ovarian = system: NCI/ADR-RES ovarian
RXF 393 renal = system: RXF 393 renal
TK-10 renal = system: TK-10 renal
SW-620 colon = system: SW-620 colon
BT-549 breast = system: BT-549 breast
CAKI-1 renal = system: CAKI-1 renal
HCT-15 colon = system: HCT-15 colon
A498 renal = system: A498 renal
U251 CNS = system: U251 CNS
786-0 renal = system: 786-0 renal
LOX IMVI melanoma = system: LOX IMVI melanoma
NCI-H23 lung = system: NCI-H23 lung
NCI-H522 lung = system: NCI-H522 lung
OVCAR-8 ovarian = system: OVCAR-8 ovarian
MALME-3M melanoma = system: MALME-3M melanoma
HOP-92 NSCLC = system: HOP-92 NSCLC
PC-3 prostate = system: PC-3 prostate

## CC1(C)CC[C@H](C2=CC(=O)c3c(O)ccc(O)c3C2=O)O1
SN12C renal
  GI50: 2.6 µM and 1.51 µM and 0.382 µM
OVCAR-4 ovarian
  GI50: 1.86 µM and 0.311 µM and 0.192 µM
  TGI: 4.3 µM and 1.63 µM and 0.505 µM
RXF-631 renal
  TGI: 3.98 µM
SK-MEL-5 melanoma
  GI50: 1.65 µM and 1.36 µM and 0.464 µM
  TGI: 4.08 µM and 2.68 µM and 1.22 µM
DMS 114 small cell lung
  GI50: 1.63 µM
  TGI: 2.21 µM and 3.14 µM and 0.47 µM
MDA-MB-435
  GI50: 0.33 µM
  TGI: 0.837 µM
MOLT-4 leukemia
  GI50: 0.487 µM and 0.16 µM and 0.137 µM
M14 melanoma
  GI50: 0.797 µM and 0.274 µM and 0.201 µM
  TGI: 1.78 µM and 0.859 µM and 0.438 µM
HCT-116 colon
  GI50: 1.08 µM and 0.344 µM and 0.205 µM
  TGI: 2.57 µM and 1.3 µM and 0.579 µM
SK-MEL-2 melanoma
  GI50: 4.34 µM and 1.3 µM and 0.682 µM
  TGI: 8.47 µM and 2.67 µM and 1.56 µM
OVCAR-5 ovarian
  GI50: 4.43 µM and 2 µM and 1.91 µM
  TGI: 8.24 µM and 3.56 µM and 3.57 µM
A549 NSCLC
  GI50: 9.2 µM and 3.48 µM and 3.31 µM
  TGI: 30 µM and 10 µM
NCI/ADR-RES ovarian
  TGI: 12 µM
RXF 393 renal
  GI50: 1.39 µM and 2.02 µM and 0.271 µM
  TGI: 2.93 µM and 3.82 µM and 0.604 µM
TK-10 renal
  GI50: 1.5 µM and 1.72 µM and 0.604 µM
  TGI: 3.98 µM and 3.1 µM and 1.66 µM
SW-620 colon
  GI50: 0.66 µM and 0.374 µM and 0.0996 µM
  TGI: 1.67 µM and 1.64 µM and 0.229 µM
BT-549 breast
  GI50: 0.963 µM and 0.358 µM
  TGI: 2.19 µM and 1.13 µM
CAKI-1 renal
  GI50: 1.11 µM and 1.38 µM and 0.48 µM
  TGI: 2.44 µM and 2.72 µM and 1.17 µM
HCT-15 colon
  GI50: 1.71 µM and 0.378 µM and 0.226 µM
  TGI: 4.11 µM and 1.64 µM and 0.65 µM
A498 renal
  GI50: 6.81 µM and 2.57 µM and 1.71 µM
  TGI: 13.6 µM and 6.05 µM and 3.58 µM
U251 CNS
  GI50: 3.71 µM and 2.51 µM and 1.5 µM
  TGI: 6.5 µM and 7.21 µM and 3.19 µM
786-0 renal
  GI50: 0.829 µM and 1.28 µM and 0.237 µM
  TGI: 2.07 µM and 2.8 µM and 0.504 µM
LOX IMVI melanoma
  GI50: 1.78 µM and 0.303 µM and 0.658 µM
  TGI: 4.66 µM and 1.13 µM and 1.97 µM
NCI-H23 lung
  GI50: 2.14 µM and 0.836 µM and 0.639 µM
  TGI: 6.41 µM and 2.07 µM and 2.36 µM
NCI-H522 lung
  GI50: 0.55 µM and 0.0942 µM
  TGI: 1.23 µM and 0.248 µM
OVCAR-8 ovarian
  GI50: 2.27 µM and 0.675 µM and 0.581 µM
  TGI: 20.4 µM and 3.44 µM and 2.12 µM
MALME-3M melanoma
  GI50: 1.15 µM and 1.26 µM and 0.201 µM
  TGI: 2.76 µM and 2.53 µM and 0.471 µM
HOP-92 NSCLC
  GI50: 1.75 µM and 1.14 µM and 0.263 µM
  TGI: 3.39 µM and 2.5 µM and 0.725 µM
PC-3 prostate
  TGI: 7.34 µM and 4.16 µM
